# Measurements published in US6177592A, “Compounds” (priority 1997, dated 2001).
# What was measured:
# Molt-3 cells = test: Growth of Molt-3 cells (MTT); type: cell-based, human; conditions: 24 hours
# Procedure: (1) Jurkat cells (ATCC TIB-152) and Molt-3 cells (ATCC CRL-1552) which were human T cell leukemia cell stain were incubated in an RPMI 1640 medium (manufactured by Gibco BRL) containing 10% fetal calf serum (FCS, manufactured by Bio Whittaker) at 37° C. in the presence of 5% CO2 and the cells were then suspended in the above-mentioned medium containing 0, 5, 10 or 20 μM of GM to make the cell numbers 5×10^5 cells/ml followed by incubating for 24 hours. Cell growth was measured by an MTT method [Mosmann, et al.: J. Immunol. Methods, volume 65, pages 55-63 (1983)] wherein degree of cell growth was determined by the absorbance at 560 nm.
# topoisomerase II = target: T1, topoisomerase II (Homo sapiens, UniProt P11388); test: Topoisomerase II inhibition (pBR322 relaxation); type: biochemical; design: key to Inhibiting Activity: -: a complete change from a supercoiled type to a relaxation type; +: a change in a medium degree; ++: most of supercoiled type remained; +++: there was no decrease in a supercoiled type at all
# T1 construct: purchased TopoGEN
# Procedure: (1) One μl of 0.25 μg/μl pBR322 DNA (manufactured by Takara Shuzo) was added to a mixture of 2 μl of topoisomerase II (manufactured by TopoGEN, 2 units/μl), 2 μl of a buffer with a ten-fold diluted concentration [0.5M Tris-HCl (pH 8.0), 1.2M KCl, 0.1M MgCl2, 5 mM adenosine triphosphate and 5 mM dithiothreitol], 2 μl of 0.1% bovine serum albumin (manufactured by Takara Shuzo), 11 μl of distilled water and 2 μl of distilled water (a control) or a sample (50, 100, 200, 500, 1000 or 2500 μM of GM) and made to react at 37° C. After the reaction for 30 minutes, the reaction was stopped by adding 2 μl aqueous solution of 1% sodium dodecylsulfate, 50% glycerol and 0.02% Bromophenol Blue.
# The above reaction solution (20 μl) was applied to 1% agarose gel prepared from agarose L03 (manufactured by Takara Shuzo) and TAE buffer [40 mM Tris, 5 mM sodium acetate and 1 mM disodium ethylenediaminetetraacetate (EDTA); adjusted to pH 7.8 with acetic acid] and electrophoresis was conducted in the TAE buffer. After the electrophoresis, the gel was dipped in an aqueous solution of 1 μg/ml ethidium bromide and irradiated with ultraviolet ray to observe the electrophoretic pattern of DNA.
# NO production = test: Inhibition of LPS-induced NO production in RAW264.7; type: cell-based, mouse; conditions: RAW 264.7
# Procedure: Inhibition activity of GM to NO production and to cell damage was measured as follows using mouse macrophage cell strain RAW264.7 cells (ATCC TIB 71) and LPS.
# Dulbecco-modified Eagle's medium (manufactured by Life Technologies Oriental; 11054-020) containing 2 mM of L-glutamine (manufactured by Life Technologies Oriental; 25030-149) containing no Phenol Red containing 5 ml of 10% fetal calf serum (manufactured by Gibco) containing 1.5×10^6 cells of RAW 264.7 was incubated in a six-well tissue culture plate in the presence of 5% carbon dioxide gas at 37° C. for 12 hours, 50μl of 50μg/ml LPS (manufactured by Sigma; L-2012) was added, then each 50 μl of 250 )i M Mn or 100 μH GM was added to each well, incubation was further continued for additional 12 hours and, after that, NO2^- produced by oxidation of NO in the medium and amount of viable cell numbers were measured. Incidentally, a sect-Lon where no LPS was added and a section where no GM was added were prepared as controls. […]
# T1 sequence (P11388 whole entry): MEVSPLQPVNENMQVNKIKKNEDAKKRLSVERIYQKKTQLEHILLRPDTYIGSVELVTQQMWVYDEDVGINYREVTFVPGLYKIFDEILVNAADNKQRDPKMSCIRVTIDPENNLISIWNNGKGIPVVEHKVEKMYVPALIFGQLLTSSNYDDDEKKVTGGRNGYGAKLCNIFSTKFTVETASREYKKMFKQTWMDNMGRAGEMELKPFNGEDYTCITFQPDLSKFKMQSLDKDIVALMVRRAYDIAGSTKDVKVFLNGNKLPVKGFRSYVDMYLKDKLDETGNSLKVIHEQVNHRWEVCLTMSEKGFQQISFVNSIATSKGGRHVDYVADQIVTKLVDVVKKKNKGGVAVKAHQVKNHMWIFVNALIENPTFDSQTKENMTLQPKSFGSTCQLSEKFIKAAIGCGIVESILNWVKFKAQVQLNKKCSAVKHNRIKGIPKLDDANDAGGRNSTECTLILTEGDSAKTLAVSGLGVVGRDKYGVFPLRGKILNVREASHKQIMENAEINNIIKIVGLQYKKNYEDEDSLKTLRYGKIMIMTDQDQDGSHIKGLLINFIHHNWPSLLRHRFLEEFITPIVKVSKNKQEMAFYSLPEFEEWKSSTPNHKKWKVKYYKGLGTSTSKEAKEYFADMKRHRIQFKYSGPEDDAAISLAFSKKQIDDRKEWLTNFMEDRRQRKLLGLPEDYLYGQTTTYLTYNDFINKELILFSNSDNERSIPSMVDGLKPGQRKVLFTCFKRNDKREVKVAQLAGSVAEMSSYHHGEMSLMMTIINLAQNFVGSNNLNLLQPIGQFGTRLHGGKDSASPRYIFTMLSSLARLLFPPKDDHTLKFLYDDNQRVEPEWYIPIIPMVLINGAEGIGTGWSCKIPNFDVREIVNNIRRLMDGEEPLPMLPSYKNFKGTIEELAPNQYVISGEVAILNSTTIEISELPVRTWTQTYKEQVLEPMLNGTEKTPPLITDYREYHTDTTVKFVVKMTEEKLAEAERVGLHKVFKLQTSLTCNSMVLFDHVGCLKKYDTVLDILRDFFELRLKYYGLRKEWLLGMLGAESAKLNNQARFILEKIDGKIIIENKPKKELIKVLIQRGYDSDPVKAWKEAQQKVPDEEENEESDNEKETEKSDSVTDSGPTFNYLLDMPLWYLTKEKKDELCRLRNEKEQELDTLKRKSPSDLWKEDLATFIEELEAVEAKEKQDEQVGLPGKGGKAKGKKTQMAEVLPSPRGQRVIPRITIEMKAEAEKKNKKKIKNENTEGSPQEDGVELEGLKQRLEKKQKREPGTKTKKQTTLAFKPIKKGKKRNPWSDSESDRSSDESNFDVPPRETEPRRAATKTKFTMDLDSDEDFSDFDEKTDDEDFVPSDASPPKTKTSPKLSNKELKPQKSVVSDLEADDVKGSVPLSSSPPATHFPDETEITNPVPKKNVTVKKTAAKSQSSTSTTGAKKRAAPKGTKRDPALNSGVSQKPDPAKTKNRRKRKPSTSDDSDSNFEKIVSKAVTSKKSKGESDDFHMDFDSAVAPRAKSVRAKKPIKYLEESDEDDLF
smiles,measurement,setting,value
"N[C@@H](CCC(=O)N[C@@H](CSC1C=C(O)C(=O)C1)C(=O)NCC(=O)O)C(=O)O (some centres unmarked) [GM, 2-hydroxy-4-glutathion-S-yl-2-cyclopenten-1-one]",effect in the growth of cells,Molt-3 cells; 5 μM or less,no significant effect in the growth of cells
same,inhibition at 10 µM,"Molt-3 cells; Homo sapiens, 10 μM, read-out: inhibition of cell growth",~50%
same,inhibition at 20 µM,"Molt-3 cells; Homo sapiens, 20 μM, read-out: inhibition of cell growth",≥ 75%
same,concentration at which change of DNA to relaxation type was partially or completely inhibited,topoisomerase II,≥ 10 µM
same,Inhibiting Activity,topoisomerase II; 5 μM,-
same,Inhibiting Activity,topoisomerase II; 10 μM,+
same,Inhibiting Activity,topoisomerase II; 20 μM,++
same,Inhibiting Activity,topoisomerase II; 50 μM,++
same,Inhibiting Activity,topoisomerase II; 100 μM,+++
same,Inhibiting Activity,topoisomerase II; 250 μM,+++
same,inhibition of NO production,NO production,inhibited the NO production induced by LPS
